Data published in patent US11440880B2, “Thalidomide analogs and methods of use” (The USA, as represented by the Secretary, Department of …, priority 2015, dated 2022).

Key:
TNF-α protein = TNF-α protein level (ELISA) in LPS-challenged RAW 264.7 cells; assay type: cell-based, mouse; design: key: NS=not significant; a “+” sign=anti-inflammatory or increased cell numbers; a “−” sign=cell toxicity or pro-inflammatory; settings: LPS 30 or 60 ng/mL, 24 h
Protocol: Nitrite levels in the culture media were measured by use of the Griess Reagent System (Promega, Madison, Wis.), following the manufacturer's protocol. The O.D. of unknown samples was read at 520 nm λ, compared to a sodium nitrite standard curve (1.5 μM to 100 μM) and nitrite measured media concentrations expressed as μM units. As the lowest nitrite concentration on the Griess Reagent System standard curve was 1.5 μM, this was chosen as the effective cutoff for defining measurable nitrite concentrations. TNF-α protein levels were measured by use of an ELISA specific for mouse TNF-α protein (BioLegend, San Diego, Calif.) and are expressed as a % change from their appropriate control or as pg/ml.
(§1) RAW 264.7 cells obtained from ATCC (Manassas, Va., USA) were grown in DMEM media supplemented with 10% FCS, penicillin 100 μg/ml and streptomycin 100 μg/ml, and maintained at 37° C. and 5% CO2. Cells were seeded in 24 well plates and, 24 hours later, were utilized in studies. One hour prior to the initiation of any study, the seeding media was replaced with fresh media (1 mL), and the cells were allowed to equilibrate at 37° C. and 5% CO2.
(§2) RAW 264.7 cells were challenged with LPS (Sigma, St Louis, Mo.: serotype 055:B5) from at a final concentration of 30 or 60 ng/mL. This concentration of LPS in RAW 264.7 cells induces a sub-maximal rise in both TNF-alpha and nitrite levels without a loss in cellular viability. This sub-maximal rise is useful for assessing whether the addition of an experimental drug can either lower or further raise levels of TNF-α and nitrite. Twenty four hours following the addition of LPS, conditioned media was harvested and analyzed for quantification of secreted TNF-α protein and nitrite levels. Fresh media was replaced into the wells and cell viability was then assessed.
(§3) Thalidomide and analogs were prepared in tissue culture grade DMSO (Sigma). RAW 264.7 cells were pretreated with thalidomide, analogues or vehicle one hour prior to a challenge with LPS. The effects of various concentrations of thalidomide analogues were assessed. All compounds were synthesized to a chemical purity of >99.5%, as assessed by chemical characterization by a combination of 1H NMR, 13C NMR and GC/MS analyses (Bruker AC-300 spectrometer, together with elemental analyses (Atlantic Microlab, Inc., Norcross, Ga.).

RAW 264.7 cells = experiment: Cell viability (CellTiter 96 AQueous One) of LPS-challenged RAW 264.7 cells; assay type: cell-based, mouse; design: key: NS=not significant; a “+” sign=anti-inflammatory or increased cell numbers; a “−” sign=cell toxicity or pro-inflammatory
Protocol: The CellTiter 96® AQueous One Solution Cell Proliferation Assay (Promega, Madison, Wis.) is routinely used as an assay of cell proliferation, and was used according to the manufacturer's recommendations. Changes in cellular health status are determined by use of indirect measures related to the formation of a colored tetrazolium dye product that can be measured spectrophotometrically at 490 nm λ. […] Optical densities (expressed as O.D.s) were measured after various incubations.
as §1, §2, §3

[1] = test system: mpo:GFP zebrafish embryos (neutrophil migration to the wound site); experiment: mpo:GFP zebrafish fin-clip neutrophil migration (inflammation) assay; assay type: in vivo; design: mpo:GFP inflammation n (survived/tested): concentration or dose not given beside the values; settings: for minimal effective concentration: Danio rerio, Neutrophil, lowest concentration producing an effect, compounds not producing an effect shown at the highest evaluated concentration; for mpo:GFP inflammation n (survived/tested): embryos survived/tested at the concentration given
Source text: (§4) Zebrafish embryology: The use of zebrafish embryo (Danio rerio) bioassays as a preclinical model in the classification of novel compounds has increased in recent years due to several factors including; low cost, ease of maintenance, speed of embryonic development, transparency of the embryos and genetic conservation between zebrafish and humans (Howe et al., Nature 2013; 496:498; Therapontos et al., PNAS 2009, 106:8573; Mahony et al., PNAS 2013, 110:12703; Beedie et al., Oncotarget 2016, 7(22):33237; Beedie et al., Mol. Cancer Ther. 2015, 14(10):2228). Two established zebrafish reporter lines were used—the fli1:EGFP line, where the fli1 promoter drives expression of enhanced green fluorescent protein within the developing vasculature (Lawson et al., 2002), and the Tg(mpo::EGFP) line (also known as mpo:GFP), which expresses green fluorescent protein via the neutrophil specific myeloperoxidase promoter (Renshaw et al., Blood 2006, 108:3976). The use of these zebrafish transgenic reporter lines allows for the identification of potential anti-angiogenic and anti-inflammatory compounds respectively, and both have been used previously to successfully classify the action of thalidomide analogs (Therapontos et al., 2009; Mahony et al., 2013; Beedie et al., Oncotarget 2016, 7(22):33237; Beedie et al., Mol. Cancer Ther. 2015, 14(10):2228). Zebrafish embryos were treated with analogs as previously described (Mahony et al., 2013). Briefly, fli1:EGFP embryos were collected and embryos were allowed to develop for 24 hours. Embryos were dechorionated manually and exposed to test compounds or vehicle control for a further 24 hours, imaged and analyzed for intersegmental vessel (ISV) growth. At 24 hours post fertilisation (hpf) the ISVs were ideal to study to visualize and analyze the actions of compounds on angiogenesis. At this time point ISVs were rapidly forming beneath the developing head, over the body and had yet to form in the tail (Lawson and Weinstein, Developmental Biology 2002, 248:307; Therapontos and Vargesson, Developmental Dynamics 2010, 239:2761). Additionally, these sprouts would go on to form the bilateral dorsal longitudinal anastomotic vessels. By treating before this fusion and formation occurs, the effect of each compound on the individual vessels as well as overall patterning structural integrity (Isogai et al., Development 2003, 130:5281) could be determined. Tg(mpo::EGFP) were tail fin clipped as previously detailed (Renshaw et al., 2006; Mahony et al., 2013; Beedie et al., Oncotarget 2016, 7(22):33237; Beedie et al., Mol. Cancer Ther. 2015, 14(10):2228) and incubated with test compounds or vehicle control at 72 hours post fertilization. Fish were imaged at 24 hours and the number of migratory neutrophils present at the wound site were counted. Compounds inducing an at least 50% reduction of neutrophils to the wound site were considered to have anti-inflammatory properties in this system. All larvae were assessed for viability and morphological integrity.
To assess the immunomodulatory effects of the thalidomide analogs, the mpo:gfp transgenic zebrafish line (Renshaw et al., Blood 2006, 108:3976-3978) was utilized because it is an accepted model of inflammation, and can be used to test the effect of anti-inflammatory agents. These embryos express GFP-tagged myeloperoxidase, where green fluorescence marks the neutrophil cells involved in the inflammatory response process, for example following injury, from 72 hours post fertilization (Renshaw et al., 2006; Mahony et al., 2013; Beedie et al., Oncotarget 2016, 7(22):33237). At 72 hpf the dorsal third of the tail fin was removed and the embryos were immersed in the desired compound or vehicle (FIGS. 5A-5C). The embryos were examined for the effect on the inflammatory response quantified as an induction and migration of neutrophils to the wound site 24 hours later.

[2] = test system: fli1:EGFP zebrafish embryos (intersegmental vessel growth); experiment: fli1:EGFP zebrafish embryo angiogenesis assay; assay type: in vivo; design: fli1:EGFP angiogenesis n (survived/tested): concentration or dose not given beside the values; settings: for minimal effective concentration: Danio rerio, lowest concentration producing an effect, compounds not producing an effect shown at the highest evaluated concentration; for fli1:EGFP angiogenesis n (survived/tested): embryos alive after 24 hours of exposure
Source text: as §4
To determine if the thalidomide analogs had any effect on angiogenesis, fli1:EGFP embryos (Lawson and Weinstein, Developmental Biology 2002, 248:307-318) were exposed to either vehicle or a compound of interest, over a range of concentrations and over a range of time points starting at 24 hpf. Images were obtained at three time points over 24 hours after exposure to the compounds. The best concentration and time point were selected. CPS49, a compound that is chemically and structurally similar to thalidomide breakdown products, and is tetrafluorinated (which adds stability and bioactivity to the compound) and that causes severe limb defects in chicken embryos, was used as a positive control. The embryos were imaged at 48 hpf (FIGS. 3A3L) and analyzed for both vessel formation and the extent of growth of the vasculature. […]

| Structure (SMILES) | TNF-α (TNF-α protein; 3 μM) | TNF-α (TNF-α protein; 10 μM) | TNF-α (TNF-α protein; 30 μM) | Viability (RAW 264.7 cells; 3 μM) | Viability (RAW 264.7 cells; 10 μM) | Viability (RAW 264.7 cells; 30 μM) | minimal effective concentration [1] [µg/mL] | mpo:GFP inflammation n (survived/tested) [1] | minimal effective concentration [2] [µg/mL] | fli1:EGFP angiogenesis n (survived/tested) [2] | TNF-α (TNF-α protein; 1 μM) | Viability (RAW 264.7 cells; 1 μM) | anti-inflammatory activity (inhibition of neutrophil migration) ([1]; in words) |
| --- | --- | --- | --- | --- | --- | --- | --- | --- | --- | --- | --- | --- | --- |
| Nc1cccc2c1CN(C1CCC(=S)NC1=O)C2=S (centres unmarked) [Compound 32] | + | + | + | NS | NS | NS | 10 | 6/15 | 100 | 21/25 |  |  |  |
| O=C1NC(=S)CCC1N1C(=O)c2ccc(O)cc2C1=O (centres unmarked) [Compound 17] |  |  |  |  |  |  | 10 | 5/5 | 15 | 26/50 |  |  |  |
| O=C1CCC(N2C(=O)c3ccc(OCc4ccccc4)cc3C2=O)C(=O)N1 (centres unmarked) [Compound 20] |  |  |  |  |  |  | 10 | 8/14 | 10 | 51/79 |  |  |  |
| Nc1ccc2c(c1)C(=O)N(C1CCC(=O)NC1=O)C2 (centres unmarked) [Compound 34] |  |  |  |  |  |  | 100 | 7/9 | 100 | 13/20 |  |  |  |
| N=C1c2ccccc2C(=O)N1C1CCC(=O)NC1=O (centres unmarked) [Compound 56] |  |  |  |  |  |  | 10 | 7/8 | 10 | 9/19 |  |  |  |
| O=C1CCC(N2Cc3ccccc3C2=O)C(=O)N1CSC(=S)NC1CCCCC1 (centres unmarked) [Compound 52] |  | + | + |  | NS | NS | 100 | 7/21 | 100 | 6/7 | + | NS |  |
| O=C1CCC(N2Cc3ccc([N+](=O)[O-])cc3C2=O)C(=O)N1 (centres unmarked) [Compound 33] |  |  |  |  |  |  | 10 | 4/15 | 100 | 15/21 |  |  |  |
| Nc1cccc2c1CN(C1CCC(=S)NC1=O)C2=O (centres unmarked) [Compound 30] |  |  |  |  |  |  | 10 | 10/10 | 10 | 4/8 |  |  |  |
| Nc1ccc2c(=O)n(C3CCC(=O)NC3=O)c(=O)oc2c1 (centres unmarked) [Compound 24] |  |  |  |  |  |  | 50 | 6/6 | 50 | 13/25 |  |  |  |
| CC(=O)Oc1ccc2c(c1)C(=O)N(C1CCC(=O)NC1=O)C2=O (centres unmarked) [Compound 18] |  |  |  |  |  |  | 50 | 14/14 | 50 | 24/43 |  |  |  |
| CC(C)Nc1ccc2c(c1)C(=O)N(C1CC=CNC1=O)C2 (centres unmarked) [Compound 46, 6-Isopropylamino-2-(3,4-dihydro-2-pyridone-3-yl)phthalimidine] |  |  |  |  |  |  | 10 | 24/50 | 10 | 14/30 |  |  |  |
| CC(=O)Oc1ccc2c(c1)C(=O)N(C1CCC(=S)NC1=O)C2=O (centres unmarked) [Compound 19] |  |  |  |  |  |  | 1 | 5/12 | 1 | 13/51 |  |  |  |
| N=C1N/C(=N\C2CCC(=O)NC2=O)c2ccccc21 (centres unmarked) [Compound 55] |  |  |  |  |  |  | 200 | 6/11 | 100 | 6/10 |  |  |  |
| O=C1NC(=S)CCC1N1C(=O)c2ccccc2C1=S (centres unmarked) [Compound 2, 2,3-dihydro-2-(2-oxo-6-thioxo-3-piperidinyl)-3-thioxo-1H-isoindol-1-one] |  |  |  |  |  |  | 10 | 26/30 | 10 | 21/24 |  |  | significant anti-inflammatory action |
| O=C1NC(=S)CCC1N1C(=O)c2cccc(O)c2C1=O (centres unmarked) [Compound 14] |  |  |  |  |  |  | 10 | 14/24 | 10 | 7/23 |  |  |  |
| O=C1c2cccc([N+](=O)[O-])c2C(=O)N1c1nc2ccc(C(F)(F)F)cc2s1 [Compound 60] |  |  |  |  |  |  | 1 | 5/15 | 10 | 3/10 |  |  |  |
